# Reference: patent US20240116985A1, “STAPLED PEPTIDES AND METHODS THEREOF” (priority 2020, published 2024)
# Read-outs that look alike come from different tables or passages of the source.
# Legend:
# Solubility in PBS = type: physicochemical
# In short: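 HPLC quantitation of peptide remaining in the PBS supernatant after ultracentrifugation, referenced to a 50 μM solution in DMSO.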
# [1] = target: T1, full-length beta-Catenin (Uniprot ID P35222) (Homo sapiens, UniProt P35222); experiment: Fluorescence polarization IC50 (beta-catenin / 5FAM-TCF4 10-53 competition); type: binding
# T1 construct: 10 nM full-length beta-Catenin (Uniprot ID P35222)
# T1 sequence (P35222 1-781): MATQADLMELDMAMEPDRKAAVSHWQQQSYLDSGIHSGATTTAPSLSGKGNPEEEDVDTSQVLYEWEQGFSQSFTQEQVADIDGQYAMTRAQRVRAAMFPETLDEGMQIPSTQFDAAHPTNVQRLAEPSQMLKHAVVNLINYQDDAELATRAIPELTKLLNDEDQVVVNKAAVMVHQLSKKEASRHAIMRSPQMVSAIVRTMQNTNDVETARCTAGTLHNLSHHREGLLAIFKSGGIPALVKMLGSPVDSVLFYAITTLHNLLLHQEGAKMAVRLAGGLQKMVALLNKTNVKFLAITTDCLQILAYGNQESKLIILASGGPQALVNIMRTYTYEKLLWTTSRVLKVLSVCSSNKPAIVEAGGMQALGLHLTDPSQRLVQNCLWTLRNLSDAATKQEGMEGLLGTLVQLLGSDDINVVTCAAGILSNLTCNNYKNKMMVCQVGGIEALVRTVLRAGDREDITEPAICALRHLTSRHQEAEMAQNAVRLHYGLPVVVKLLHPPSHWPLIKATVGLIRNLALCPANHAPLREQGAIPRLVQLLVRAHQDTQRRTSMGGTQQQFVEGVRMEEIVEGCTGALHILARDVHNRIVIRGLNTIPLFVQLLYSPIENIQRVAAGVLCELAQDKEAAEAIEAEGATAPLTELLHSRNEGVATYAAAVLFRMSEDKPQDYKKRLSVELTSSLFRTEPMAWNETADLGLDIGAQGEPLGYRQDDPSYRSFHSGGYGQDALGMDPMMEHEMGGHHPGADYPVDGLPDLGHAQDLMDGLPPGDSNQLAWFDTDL
# CHI Log D procedure = type: physicochemical; conditions: for chromatographic logD: pH 7.4, CHI Log D; for CHI Log D: pH 7.4
# [2] = fluorescence polarization, read-out: beta-Catenin FP IC50
# [3] = fluorescence polarization, beta-catenin, read-out: FP EC50
# [4] = Table E2-1, read-out: beta-Catenin FP IC50
Structure (SMILES),Solubility (Solubility in PBS) [µM],"IC50 [1, 2] [nM]",chromatographic logD (CHI Log D procedure),Solubility (Solubility in PBS; Solubility (uM)) [µM],"IC50 [1, 3] [nM]",IC50 ([1]; read-out: beta-Catenin FP IC50) [nM],CHI Log D (CHI Log D procedure),"IC50 [1, 4] [nM]",IC50 ([1]; read-out: FP EC50) [nM]
"CC[C@H](C)[C@@H]1NC(=O)[C@H](CC(=O)O)NC(=O)[C@]2(CC=CCCCC3(CCCC=CCCCCCC[C@@](C)(C(=O)N[C@@H](Cc4ccccc4)C(=O)N[C@@H](Cc4csc5ccccc45)C(=O)N[C@@H](CCCNC(=N)N)C(N)=O)NC(=O)[C@H](CCC(N)=O)NC(=O)[C@H](Cc4ccccc4)NC(=O)[C@H](C)NC(=O)[C@H](C)NC(=O)[C@H](CCC(=O)O)NC(=O)[C@H](CC(=O)O)NC3=O)NC1=O)CCCN2C(C)=O (stereo partly drawn) [I-633, Ac-PL3-Asp-Ile-B5-Asp-Glu-Ala-Ala-Phe-Gln-S8-Phe-BztA-Arg-NH2]",10,88,2.62,–,–,–,–,–,–
"CC(=O)N1CCC[C@]12CC=CCCCC1(CCCC=CCCCOC(=O)N3CC[C@@](C(=O)N[C@@H](Cc4ccsc4)C(=O)N[C@@H](Cc4csc5ccccc45)C(=O)N[C@@H](CCC(N)=O)C(N)=O)(C3)NC(=O)[C@H](CC(N)=O)NC(=O)[C@H](Cc3ccccc3)NC(=O)[C@H](C)NC(=O)[C@H](C)NC(=O)[C@H](CC(=O)O)NC(=O)[C@H](CC(=O)O)NC1=O)NC(=O)[C@H](CC(C)(C)C)NC(=O)C[C@H](CC(=O)O)NC2=O (stereo partly drawn) [I-1159, Ac-PL3-RbGlu-Npg-B5-Asp-Asp-Ala-Ala-Phe-Asn-PyrS2-3Thi-BztA-Gln-NH2]",–,61,1.88,45,–,–,–,–,–
"CC(=O)N1CCC[C@]12CC=CCCCC1(CCCC=CCCCCCC[C@@](C)(C(=O)N[C@@H](Cc3ccccc3)C(=O)N[C@@H](Cc3csc4ccccc34)C(=O)N[C@@H](Cc3c[nH]cn3)C(=O)N[C@H](C)C(N)=O)NC(=O)[C@H](CC(N)=O)NC(=O)[C@H](Cc3ccccc3)NC(=O)[C@H](C)NC(=O)[C@H](C)NC(=O)[C@H](CCC(=O)O)NC(=O)[C@H](CC(=O)O)NC1=O)NC(=O)[C@H](CC(C)C)NC(=O)[C@H](CC(=O)O)NC2=O (stereo partly drawn) [I-739, Ac-PL3-Asp-Leu-B5-Asp-Glu-Ala-Ala-Phe-Asn-S8-Phe-BztA-His-dAla-NH2]",10,53,2.41,–,–,–,–,–,–
"CC(=O)N1CCC[C@]12CC=CCCCC1(CCCC=CCCCOC(=O)N3CC[C@@](C(=O)N[C@@H](Cc4ccsc4)C(=O)N[C@@H](Cc4csc5ccccc45)C(=O)N[C@@H](CO)C(N)=O)(C3)NC(=O)[C@H](CCO)NC(=O)[C@H](Cc3ccccc3)NC(=O)[C@H](C)NC(=O)[C@H](C)NC(=O)[C@H](CN(CC(=O)O)CC(F)(F)F)NC(=O)[C@H](CC(=O)O)NC1=O)NC(=O)[C@H](CC(C)(C)C)NC(=O)[C@H](CC(=O)O)NC2=O (stereo partly drawn) [I-959, Ac-PL3-Asp-Npg-B5-Asp-TfeGA-Ala-Ala-Phe-Hse-PyrS2-3Thi-BztA-Ser-NH2]",48,–,–,–,881,881,−0.036,–,–
"CC(=O)N1CCC[C@]12CC=CCCCC1(CCCC=CCCCCCC[C@@](C)(C(=O)N[C@@H](Cc3ccccn3)C(=O)N[C@@H](Cc3csc4ccccc34)C(=O)N[C@@H](CCC(N)=O)C(N)=O)NC(=O)[C@H](C(C)C)NC(=O)[C@H](Cc3ccccc3)NC(=O)[C@H](C)NC(=O)[C@H](C)NC(=O)[C@H](CCC(=O)O)NC(=O)[C@H](CC(=O)O)NC1=O)NC(=O)[C@H](C)NC(=O)[C@H](CC(=O)O)NC2=O (stereo partly drawn) [I-384, Ac-PL3-Asp-Ala-B5-Asp-Glu-Ala-Ala-Phe-Val-S8-2pyrA-BztA-Gln-NH2]",45,–,–,–,177,–,1.837,177,–
"CC(=O)N1CCC[C@]12CC=CCCCC1(CCCC=CCCCCCC[C@@](C)(C(=O)N[C@@H](Cc3ccccc3)C(=O)N[C@@H](Cc3csc4ccccc34)C(N)=O)NC(=O)[C@H](CC(N)=O)NC(=O)[C@H](Cc3ccccc3)NC(=O)[C@H](C)NC(=O)[C@H](C)NC(=O)[C@H](CCC(=O)O)NC(=O)[C@H](CC(=O)O)NC1=O)NC(=O)[C@H](CC(C)C)NC(=O)[C@H](CC(=O)O)NC2=O (stereo partly drawn) [I-624, Ac-PL3-Asp-Leu-B5-Asp-Glu-Ala-Ala-Phe-Asn-S8-Phe-BztA-NH2]",27,273,–,–,–,–,2.598,–,273
"CC[C@H](C)[C@@H]1NC(=O)[C@H](CC(=O)O)NC(=O)[C@]2(CC=CCCCC3(CCCC=CCCCCCC[C@@](C)(C(=O)N[C@@H](Cc4ccccc4)C(=O)N[C@@H](Cc4csc5ccccc45)C(=O)N[C@H](C(N)=O)[C@@H](C)O)NC(=O)[C@H](CCC(N)=O)NC(=O)[C@H](Cc4ccccc4)NC(=O)[C@H](C)NC(=O)[C@H](C)NC(=O)[C@H](CCC(=O)O)NC(=O)[C@H](CC(=O)O)NC3=O)NC1=O)CCCN2C(C)=O (stereo partly drawn) [I-641, Ac-PL3-Asp-Ile-B5-Asp-Glu-Ala-Ala-Phe-Gln-S8-Phe-BztA-Thr-NH2]",43,122,–,–,–,–,2.497,–,122
"CC(=O)N1CCC[C@]12CC=CCCCC1(CCCC=CCCCOC(=O)N3CC[C@@](C(=O)N[C@@H](Cc4ccsc4)C(=O)N[C@@H](Cc4csc5ccccc45)C(=O)N[C@@H](CO)C(N)=O)(C3)NC(=O)[C@H](CO)NC(=O)[C@H](Cc3ccccc3)NC(=O)[C@H](C)NC(=O)[C@H](C)NC(=O)[C@H](Cc3cccc(C(=O)O)c3)NC(=O)[C@H](CC(=O)O)NC1=O)NC(=O)[C@H](CC(C)(C)C)NC(=O)[C@H](CC(=O)O)NC2=O (stereo partly drawn) [I-985, Ac-PL3-Asp-Npg-B5-Asp-3COOHF-Ala-Ala-Phe-Ser-PyrS2-3Thi-BztA-Ser-NH2]",47,–,–,–,301,431,1.87,–,–
"CC(=O)N1CCC[C@]12CC=CCCCC1(CCCC=CCOC(=O)N(C)CCC[C@@](C)(C(=O)N[C@@H](Cc3ccsc3)C(=O)N[C@@H](Cc3csc4ccccc34)C(=O)N[C@@H](CCC(N)=O)C(N)=O)NC(=O)[C@H](CC(N)=O)NC(=O)[C@H](Cc3ccccc3)NC(=O)[C@H](C)NC(=O)[C@H](C)NC(=O)[C@H](CC(=O)O)NC(=O)[C@H](CC(=O)O)NC1=O)NC(=O)[C@H](CC(C)(C)C)NC(=O)[C@H](CC(=O)O)NC2=O (stereo partly drawn) [I-766, Ac-PL3-Asp-Npg-B5-Asp-Asp-Ala-Ala-Phe-Asn-SeN-3Thi-BztA-Gln-NH2]",50,–,–,–,–,55,1.853,–,55
"CC(=O)N1CCC[C@]12CC=CCCCC1(CCCC=CCCCCCC[C@@](C)(C(=O)N[C@@H](Cc3cccc(F)c3)C(=O)N[C@@H](Cc3csc4ccccc34)C(=O)N[C@@H](CCC(N)=O)C(N)=O)NC(=O)[C@H](C)NC(=O)[C@H](Cc3ccccc3)NC(=O)[C@H](C)NC(=O)[C@H](C)NC(=O)[C@H](CCC(=O)O)NC(=O)[C@H](CC(=O)O)NC1=O)NC(=O)[C@H](C)NC(=O)[C@H](CC(=O)O)NC2=O (stereo partly drawn) [I-372, Ac-PL3-Asp-Ala-B5-Asp-Glu-Ala-Ala-Phe-Ala-S8-3FF-BztA-Gln-NH2]",–,–,2.17,44,–,–,–,2090,–
"CC(=O)N1CCC[C@]12CC=CCCCC1(CCCC=CCCCCCC[C@@](C)(C(=O)N[C@@H](Cc3ccccc3Cl)C(=O)N[C@@H](Cc3csc4ccccc34)C(=O)N[C@@H](CCO)C(N)=O)NC(=O)[C@H](CC(C)C)NC(=O)[C@H](Cc3ccccc3)NC(=O)[C@H](C)NC(=O)[C@H](C)NC(=O)[C@H](CN(CC(=O)O)CC(F)(F)F)NC(=O)[C@H](CC(=O)O)NC1=O)NC(=O)[C@H](CC(C)(C)C)NC(=O)[C@H](CC(=O)O)NC2=O (stereo partly drawn) [I-997, Ac-PL3-Asp-Npg-B5-Asp-TfeGA-Ala-Ala-Phe-Leu-S8-2C1F-BztA-Hse-NH2]",10,–,3.42,–,–,154,–,–,–
"CC(=O)N1CCC[C@]12CC=CCCCC1(CCCC=CCCCCCC[C@@](C)(C(=O)N[C@@H](Cc3cccc(F)c3)C(=O)N[C@@H](Cc3csc4ccccc34)C(=O)N[C@@H](CCC(N)=O)C(N)=O)NC(=O)[C@H](C(C)C)NC(=O)[C@H](Cc3ccccc3)NC(=O)[C@H](C)NC(=O)[C@H](C)NC(=O)[C@H](CC(N)=O)NC(=O)[C@H](CC(=O)O)NC1=O)NC(=O)[C@H](C)NC(=O)[C@H](CC(=O)O)NC2=O (stereo partly drawn) [I-381, Ac-PL3-Asp-Ala-B5-Asp-Asn-Ala-Ala-Phe-Val-S8-3FF-BztA-Gln-NH2]",10,–,–,–,3650,–,2.636,3650,–
"CC(=O)N1CCC[C@]12CC=CCCCC1(CCCC=CCCCCCC[C@@](C)(C(=O)N[C@@H](Cc3ccccc3)C(=O)N[C@@H](Cc3csc4ccccc34)C(=O)N[C@@H](CCC(N)=O)C(N)=O)NC(=O)[C@H](C)NC(=O)[C@H](Cc3cccc(C(F)(F)F)c3)NC(=O)[C@H](C)NC(=O)[C@H](C)NC(=O)[C@H](CC(=O)O)NC(=O)[C@H](CC(=O)O)NC1=O)NC(=O)[C@H](C)NC(=O)[C@H](CC(=O)O)NC2=O (stereo partly drawn) [I-375, Ac-PL3-Asp-Ala-B5-Asp-Asp-Ala-Ala-3F3MeF-Ala-S8-Phe-BztA-Gln-NH2]",49,–,–,–,3010,–,2.242,–,–
